Assay results from patent US8008311B2, “Methods and compostions utilizing quinazolinones” (Cytokinetics, Inc., priority 2003, dated 2011).
Several values for one entry are separate records, joined by “and”; a condition that tells them apart may be missing. Identical values can stand only once. Like-named read-outs stand apart in the source and are kept apart here. One block for each compound: values may come before it.

Experiments:
[1] = molecular target: T1, KSP motor domain (Homo sapiens, UniProt P52732); assay: KSP ATPase assay (IC50 / Ki); type: biochemical; conditions: for Ki: synthesized as single enantiomer
T1 construct: 100 nM KSP motor domain, 50 μg/ml microtubules
T1 sequence (P52732 18-359 limits assumed): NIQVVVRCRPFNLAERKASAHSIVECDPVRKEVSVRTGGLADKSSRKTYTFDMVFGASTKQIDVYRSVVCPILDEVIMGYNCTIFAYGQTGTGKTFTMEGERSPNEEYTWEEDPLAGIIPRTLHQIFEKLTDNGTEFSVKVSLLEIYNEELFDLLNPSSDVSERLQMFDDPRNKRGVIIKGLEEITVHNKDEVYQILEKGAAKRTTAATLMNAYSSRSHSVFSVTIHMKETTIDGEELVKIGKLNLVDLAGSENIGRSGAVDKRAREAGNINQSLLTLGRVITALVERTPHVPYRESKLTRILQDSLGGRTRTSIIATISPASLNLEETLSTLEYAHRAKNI
Method: One measure of inhibition is IC50, defined as the concentration of the composition at which the activity of KSP is decreased by fifty percent. Preferred compositions have IC50's of less than about 1 mM, with preferred embodiments having IC50's of less than about 100 μM, with more preferred embodiments having IC50's of less than about 10 μM, with particularly preferred embodiments having IC50's of less than about 1 μM, and especially preferred embodiments having IC50's of less than about 100 nM, and with the most preferred embodiments having IC50's of less than about 10 nM. Measurement of IC50 is done using an ATPase assay.
The Ki for a compound is determined from the IC50 based on three assumptions. First, only one compound molecule binds to the enzyme and there is no cooperativity. […] Third, the enzymatic rate of the enzyme-inhibitor complex is zero. The rate (i.e., compound concentration) data are fitted to the equation: […]
Where V is the observed rate, Vmax is the rate of the free enzyme, I0 is the inhibitor concentration, E0 is the enzyme concentration, and Kd is the dissociation constant of the enzyme-inhibitor complex.
Measurement of a composition's IC50 for KSP activity uses an ATPase assay. The following solutions are used: Solution 1 consists of 3 mM phosphoenolpyruvate potassium salt (Sigma P-7127), 2 mM ATP (Sigma A-3377), 1 mM IDTT (Sigma D-9779), 5 μM paclitaxel (Sigma T-7402), 10 ppm antifoam 289 (Sigma A-8436), 25 mM Pipes/KOH pH 6.8 (Sigma P6757), 2 mM MgC12 (VWR JT400301), and 1 mM EGTA (Sigma E3889). Solution 2 consists of 1 mM NADH (Sigma N8129), 0.2 mg/ml BSA (Sigma A7906), pyruvate kinase 7 U/ml, L-lactate dehydrogenase 10 U/ml (Sigma P0294), 100 nM KSP motor domain, 50 μg/ml microtubules, 1 mM DTT (Sigma D9779), 5 μM paclitaxel (Sigma T-7402), 10 ppm antifoam 289 (Sigma A-8436), 25 mM Pipes/KOH pH 6.8 (Sigma P6757), 2 mM MgC12 (VWR JT4003-01), and 1 mM EGTA (Sigma E3889). Serial dilutions (8-12 two-fold dilutions) of the composition are made in a 96-well microtiter plate (Corning Costar 3695) using Solution 1. Following serial dilution each well has 50 μl of Solution 1. The reaction is started by adding 50 μl of solution 2 to each well. This may be done with a multichannel pipettor either manually or with automated liquid handling devices. The microtiter plate is then transferred to a microplate absorbance reader and multiple absorbance readings at 340 nm are taken for each well in a kinetic mode. The observed rate of change, which is proportional to the ATPase rate, is then plotted as a function of the compound concentration. For a standard IC50 determination the data acquired is fit by the following four parameter equation using a nonlinear fitting program (e.g., Grafit 4): […]
Where y is the observed rate and x the compound concentration.

[2] = test system: A549 cells; conditions: cited from earlier work
[3] = test system: SKOV3 tumor xenograft; assay: SKOV3 tumor xenograft in nude mice; type: in vivo
[4] = test system: SKOV3 tumor xenograft; assay: SKOV3 tumor xenograft in nude mice; type: in vivo; conditions: for Mice with Partial Tumor Shrinkage / Mortalities: 8 mice at start
Method: Female nude mice weighing approximately 20 g were implanted s.c. by trocar with fragments of human tumor carcinomas harvested from s.c. growing tumors in nude mice host. When the tumors were approximately 77 mg in size, the animals were pair matched into treatment and control groups. Each group contained 8 tumored mice, each of which was ear-tagged and followed individually throughout the experiment. Initial doses (10 mL/kg of a 66 mM Citrate buffer, pH 5.0/0.9% Saline/10% Tween 80 formulation of each test compound having a maximum concentration of 5 mg/mL) were given on Day 1 following pair matching, dosing at the levels and schedules indicated.
Mice were weighed twice weekly, and tumor measurements were taken by calipers twice weekly, starting on Day 1. These tumor measurements were converted to mg tumor weight by a well-known formula, W^2×L/2. The experiment was terminated when the control group tumor size reached an average of 1 gram. Upon termination, the mice were weighted, sacrificed and their tumors excised. Tumors were weighted and the mean treated tumor weight per group was calculated. In this model, the change in mean treated tumor weight/the change in mean control tumor weight×100% (ΔT/ΔC) was subtracted from 100% to give the tumor growth inhibition (TGI) for each group.

[5] = test system: Skov-3 cells (human ovarian cancer); assay: FACS analysis of cell cycle stage by DNA content; type: cell-based; conditions: 24 hours; 10 nM paclitaxel, 400 nM quinazolinone 1, 200 nM quinazolinone 2
Method: FACS analysis to determine cell cycle stage by measuring DNA content was performed as follows. Skov-3 cells (human ovarian cancer) were split 1:10 for plating in 10 cm dishes and grown to subconfluence with RPMI 1640 medium containing 5% fetal bovine serum (FBS). The cells were then treated with either 10 nM paclitaxel, 400 nM quinazolinone 1, 200 nM quinazolinone 2, or 0.25% DMSO (vehicle for compounds) for 24 hours. Cells were then rinsed off the plates with PBS containing 5 mM EDTA, pelleted, washed once in PBS containing 1% FCS, and then fixed overnight in 85% ethanol at 4° C. Before analysis, the cells were pelleted, washed once, and stained in a solution of 10 μg propidium iodide and 250 μg of ribonuclease (RNAse) A per milliliter at 37° C. for half an hour. Flow cytometry analysis was performed on a Becton-Dickinson FACScan, and data from 10,000 cells per sample was analyzed with Modfit software.

[6] = R enantiomer, read-out: Ki (μM) R enantiomer
[7] = S enantiomer, read-out: Ki (μM) S enantiomer
[8] = enantiomer 1 from chiral chromatography, read-out: IC50 (μM) Enantiomer 1
[9] = enantiomer 2 from chiral chromatography, read-out: IC50 (μM) Enantiomer 2
[10] = racemate, read-out: IC50 (μM) Racemate
[11] = 80 mg/kg every 3 days × 4, i.v.
[12] = 50 mg/kg every 3 days × 4, i.v.
[13] = 20 mg/kg daily × 5, i.p., Tables A-D

- Ki [1, 6]: < 0.1 µM
- Ki [1, 7]: 2 µM
Compound: CC(c1nc2ccccc2c(=O)n1Cc1ccccc1)N(CCN)C(=O)c1ccc(Br)cc1 (centres unmarked)

- Ki [1, 6]: < 0.05 µM
- Ki [1, 7]: > 0.5 µM
Compound: CCC(c1nc2cc(Cl)ccc2c(=O)n1Cc1ccccc1)N(CCN)C(=O)c1ccc(Br)cc1 (centres unmarked)

- IC50 ([1]; R isomer, read-out: R Isomer IC50): < 0.05 µM
- IC50 ([1]; S isomer, read-out: S Isomer IC50): > 0.5 µM
- IC50 ([1]; racemic, read-out: Racemic I C50): < 0.05 µM
Compound: CCC(c1nc2cc(Cl)ccc2c(=O)n1Cc1ccccc1)N(CCCN)C(=O)c1ccc(C)cc1 (racemic)

- IC50 [1, 8]: 0.28 µM
- IC50 [1, 9]: 0.03 µM
- IC50 [1, 10]: 0.06 µM
Compound: CCC(c1nc2ccccc2c(=O)n1Cc1ccccc1)N(CCN(C)C)C(=O)c1ccc(Br)cc1 (single isomer, unassigned)

- IC50 [1, 8]: > 40 µM
- IC50 [1, 9]: 6.6 µM
- IC50 [1, 10]: 12.7 µM
Compound: CCC(c1nc2ccccc2c(=O)n1Cc1ccccc1)N(CCN(C)C)C(=O)c1cccc2ccccc12 (single isomer, unassigned)

- IC50 [1, 8]: > 40 µM
- IC50 [1, 9]: 1.3 µM
- IC50 [1, 10]: 2.6 µM
Compound: CC(c1nc2ccccc2c(=O)n1Cc1ccccc1)N(CCN(C)C)C(=O)c1ccc(Br)cc1 (single isomer, unassigned)

Compound: O=c1[nH]cc(F)c(=O)[nH]1 [5-fluorouracil]
- GI50 [2]: 1000 nM

Compound: CCC(c1nc2cc(Cl)ccc2c(=O)n1Cc1ccccc1)N(CCCN)Cc1ccc(Br)cc1 (centres unmarked) [Compound 1]
- Final Tumor Weight (Mean ± SEM) [3, 11]: 554.3 ± 76.8 mg
- Maximum Weight Loss [4, 11]: None
- Tumor Growth Inhibition [4, 11]: 41.5%
- Mice with Partial Tumor Shrinkage [4, 11]: 0
- Mortalities [4, 11]: 1

Compound: CCC(c1nc2cc(F)ccc2c(=O)n1Cc1ccccc1)N(CCCN)C(=O)c1ccc(C)cc1 (centres unmarked) [Compound 2]
- Final Tumor Weight (Mean ± SEM) [4, 12]: 340.8 ± 93.0 mg
- Maximum Weight Loss [4, 12]: None
- Tumor Growth Inhibition [4, 12]: 81.5%
- Mice with Partial Tumor Shrinkage [4, 12]: 0
- Mortalities [4, 12]: 0

Compound: CCC(c1nc2cc(Cl)ccc2c(=O)n1Cc1ccccc1)N(CC1CNC1)C(=O)c1ccc(C)cc1 (centres unmarked) [Compound 3]
- Final Tumor Weight (Mean ± SEM) ([3]; 60 mg/kg daily × 5, i.v.): 806.1 ± 163.8 mg
- Maximum Weight Loss ([4]; 60 mg/kg daily × 5, i.v.): 2.76%
- Tumor Growth Inhibition ([4]; 60 mg/kg daily × 5, i.v.): 48.3%
- Mice with Partial Tumor Shrinkage ([4]; 60 mg/kg daily × 5, i.v.): 0
- Mortalities ([4]; 60 mg/kg daily × 5, i.v.): 1

Compound: CCC(c1nc2cc(Cl)ccc2c(=O)n1Cc1ccccc1)N(CCN)Cc1ccc(C)cc1 (centres unmarked) [Compound 4]
- Final Tumor Weight (Mean ± SEM) ([4]; 4 mg/kg weekly × 3, i.v.): 726.9 ± 147.2 mg
- Maximum Weight Loss ([4]; 4 mg/kg weekly × 3, i.v.): 0.02%
- Tumor Growth Inhibition ([4]; 4 mg/kg weekly × 3, i.v.): 40.1%
- Mice with Partial Tumor Shrinkage ([4]; 4 mg/kg weekly × 3, i.v.): 0
- Mortalities ([4]; 4 mg/kg weekly × 3, i.v.): 1

Compound: CCC(c1nc2cc(Cl)ccc2c(=O)n1Cc1ccccc1)N(CCCN(C)C)C(=O)c1ccc(Br)cc1 (centres unmarked) [Compound 5]
- Final Tumor Weight (Mean ± SEM) ([4]; 25 mg/kg daily × 5, i.v.): 405.6 ± 124.8 mg
- Maximum Weight Loss ([4]; 25 mg/kg daily × 5, i.v.): None
- Mean % Tumor Shrinkage ([4]; 25 mg/kg daily × 5, i.v.): 56.3%
- Tumor Growth Inhibition ([4]; 25 mg/kg daily × 5, i.v.): 71.0%
- Mice with Partial Tumor Shrinkage ([4]; 25 mg/kg daily × 5, i.v.): 1
- Mortalities ([4]; 25 mg/kg daily × 5, i.v.): 0

Compound: CC(=O)O[C@H]1C(=O)[C@@]2(C)[C@H]([C@H](OC(=O)c3ccccc3)[C@]3(O)C[C@H](OC(=O)[C@H](O)[C@@H](NC(=O)c4ccccc4)c4ccccc4)C(C)=C1C3(C)C)[C@]1(OC(C)=O)CO[C@@H]1C[C@@H]2O [Taxol, paclitaxel, reference compound]
- GI50 [2]: 4 nM
- Maximum Weight Loss [4, 13]: 16.5% and 7.49% and 12.26% and 8.77%
- Mean % Tumor Shrinkage [4, 13]: 27.9% and 43.5% and 44.4%
- Tumor Growth Inhibition ([4]; 20 mg/kg daily × 5, i.p., separate experiments Tables A-D): 91.7% and 99.7% and 87.1% and 73.0%
- shift of cell cycle stage (DNA content) [5]: caused a shift in the population of cells from a G0/G1 cell cycle stage (2n DNA content) to a G2/M cell cycle stage (4n DNA content)

Compound: COc1cccc2c1C(=O)c1c(O)c3c(c(O)c1C2=O)C[C@@](O)(C(=O)CO)C[C@@H]3O[C@H]1C[C@H](N)[C@H](O)[C@H](C)O1 [doxorubicin]
- GI50 [2]: 63 nM

Compound: NC(=O)NO [hydroxyurea]
- GI50 [2]: 500000 nM
